Experiments:
broad-leaved weeds [1] = assay: Pre-emergence test (Example A); assay type: in vivo; conditions: soil watered with preparation 24 hours after sowing, rated after three weeks vs untreated control (0%=no action, 100%=total destruction)
Description: Solvent: 5 parts by weight of acetone
Emulsifier: 1 part by weight of alkylaryl polyglycol ether
(§1) To produce a suitable preparation of active compound, 1 part by weight of active compound is mixed with the stated amount of solvent, the stated amount of emulsifier is added and the concentrate is diluted with water to the desired concentration.
Seeds of the test plants are sown in normal soil, and, after 24 hours, the soil is watered with the preparation of the active compound. It is expedient to keep constant the amount of water per unit area. The concentration of the active compound in the preparation is of no importance, only the amount of active compound applied per unit area being decisive.
After three weeks, the degree of damage to the plants is rated in % damage in comparison to the development of the untreated control. The figures denote:
(§2) 0%=no action (like untreated control) 100%=total destruction

broad-leaved weeds [2] = assay: Post-emergence test (Example B); assay type: in vivo; conditions: test plants of 5-15 cm height sprayed, 2,000 l water/ha, rated after three weeks vs untreated control (0%=no action, 100%=total destruction)
Description: as §1
Test plants which have a height of 5-15 cm are sprayed with the preparation of the active compound in such a way as to apply the particular amounts of active compound desired per unit area. The concentration of the spray liquor is chosen so that the particular amounts of active compound desired are applied in 2,000 1 of water/ha. After three weeks, the degree of damage to the plants is rated in % damage in comparison to the development of the untreated control.
as §2

melting point | SMILES | action against broad-leaved weeds (degree of damage to the plants) (broad-leaved weeds [1]) | action against broad-leaved weeds (degree of damage to the plants) (broad-leaved weeds [2])
– | CCOc1nn(C(=O)NS(=O)(=O)c2c(C)cccc2OC(C)C)c(=O)n1C [Example 1, 5-ethoxy-4-methyl-2-(2-isopropoxy-6-methyl-phenylsulphonyl-aminocarbonyl)-2,4-dihydro-3H-1,2,4-triazol-3-one] | very strong action | very strong action
162 °C | CCOc1cccc(C)c1S(=O)(=O)NC(=O)n1nc(OCC)n(C)c1=O [Example 9, 5-ethoxy-4-methyl-2-(2-ethoxy-6-methyl-phenylsulphonylaminocarbonyl)-2,4-dihydro-3H-1,2,4-triazol-3-one] | – | –

Reference: US6525211B1, “Herbicidal sulphonylamino(thio)carbonyl compounds” (Bayer Aktiengesellschaft, priority 1995, dated 2003)
